Source: the NIST ThermoML archive (doi:10.1021/je101173w)
Numbers after ± are expanded uncertainties.

Experiments:
[1] = mn = molality of the nth substance listed, in mol/kg; conditions: 101 kPa, Liquid; for viscosity: Capillary tube (Ostwald / Ubbelohde) method; for mass density: Vibrating tube method
[2] = 101.33 kPa, Liquid; for viscosity: Capillary tube (Ostwald / Ubbelohde) method; for mass density: Vibrating tube method

Oc1cccc(O)c1 [1,3-benzenediol] + CCO
[1]
Conditions	mass density, m1 = 1.634 [kg/m3]	mass density, m1 = 3.537 [kg/m3]	mass density, m1 = 5.77 [kg/m3]	mass density, m1 = 8.441 [kg/m3]	mass density, m1 = 11.69 [kg/m3]	viscosity, m1 = 1.634 [mPa·s]	viscosity, m1 = 3.537 [mPa·s]	viscosity, m1 = 5.77 [mPa·s]	viscosity, m1 = 8.441 [mPa·s]	viscosity, m1 = 11.69 [mPa·s]
293.15 K	847.02 ± 0.14	897.16 ± 0.13	941.64 ± 0.12	981.15 ± 0.12	1017.03 ± 0.12	2.136 ± 0.013	3.742 ± 0.022	6.373 ± 0.035	11.33 ± 0.059	21.33 ± 0.1
303.15 K	838.53 ± 0.14	889.03 ± 0.13	933.72 ± 0.12	973.42 ± 0.12	1007.47 ± 0.12	1.707 ± 0.01	3.078 ± 0.018	4.872 ± 0.028	8.487 ± 0.046	15.56 ± 0.078
313.15 K	830.12 ± 0.15	880.71 ± 0.13	925.87 ± 0.13	965.64 ± 0.12	1002.06 ± 0.11	1.421 ± 0.0087	2.294 ± 0.014	3.648 ± 0.022	5.94 ± 0.034	9.505 ± 0.051
323.15 K	821.65 ± 0.15	872.63 ± 0.14	918.18 ± 0.13	957.95 ± 0.12	994.49 ± 0.11	1.265 ± 0.0079	1.947 ± 0.012	2.864 ± 0.017	4.295 ± 0.025	6.578 ± 0.036

Oc1cccc(O)c1 [1,3-benzenediol] + O
[1]
Conditions	mass density, 293.15 K [kg/m3]	mass density, 303.15 K [kg/m3]	mass density, 313.15 K [kg/m3]	mass density, 323.15 K [kg/m3]	mass density, 333.15 K [kg/m3]	viscosity, 293.15 K [mPa·s]	viscosity, 303.15 K [mPa·s]	viscosity, 313.15 K [mPa·s]	viscosity, 323.15 K [mPa·s]	viscosity, 333.15 K [mPa·s]
m1 = 2.361	1041.62 ± 0.11	1037.63 ± 0.11	1032.94 ± 0.11	1027.74 ± 0.11	1021.98 ± 0.11	1.615 ± 0.0096	1.25 ± 0.0076	1.012 ± 0.0063	0.8329 ± 0.0053	0.6974 ± 0.0046
m1 = 4.819	1073.42 ± 0.12	1068.64 ± 0.12	1062.96 ± 0.12	1057.26 ± 0.12	1050.76 ± 0.12	2.481 ± 0.014	1.874 ± 0.011	1.474 ± 0.0089	1.181 ± 0.0073	0.9741 ± 0.0061
m1 = 7.567	1099.32 ± 0.13	1093.72 ± 0.13	1087.57 ± 0.12	1081.27 ± 0.12	1074.55 ± 0.12	3.681 ± 0.021	2.72 ± 0.016	2.089 ± 0.012	1.629 ± 0.0098	1.311 ± 0.0081
m1 = 10.59	1120.13 ± 0.13	1113.97 ± 0.13	1107.55 ± 0.13	1100.86 ± 0.13	1094.26 ± 0.13	5.347 ± 0.03	3.844 ± 0.022	2.867 ± 0.017	2.193 ± 0.013	1.727 ± 0.01
m1 = 13.9	1137.42 ± 0.14	1130.96 ± 0.14	1124.23 ± 0.14	1117.62 ± 0.13	1110.53 ± 0.13	7.61 ± 0.04	5.36 ± 0.03	3.9 ± 0.023	2.909 ± 0.017	2.247 ± 0.013

CCO [ethanol]
[2]
Conditions	mass density [kg/m3]	viscosity [mPa·s]
293.15 K	790.08 ± 0.15	1.211 ± 0.0075
303.15 K	781 ± 0.16	0.9977 ± 0.0063
313.15 K	772.31 ± 0.16	0.8319 ± 0.0054
323.15 K	763.35 ± 0.16	0.6876 ± 0.0046
333.15 K	754.2 ± 0.16	0.5806 ± 0.004
